Experimental findings from ChEMBL document CHEMBL1131961, “Protein kinase C modulators bearing dicarba-CLOSO-dodecaborane as a hydrophobic pharmacophore” (Bioorg Med Chem Lett, 1999) are described below.

One test relates to HL-60. Kind of test: Inhibition of HL-60 monocyte cell proliferation. The conditions noted are these: Homo sapiens, read-out: ED50 (the source's name). Format: functional.
For test [1], the target named is Protein kinase C delta type (Homo sapiens, UniProt Q05655). The test is described as follows: Displacement of [3H]-PDBu from human recombinant Protein kinase C delta. (In general: In a radioligand displacement assay an active substance lowers the binding of a labelled ligand.)
Protein kinase C delta type, sequence (Q05655 whole entry): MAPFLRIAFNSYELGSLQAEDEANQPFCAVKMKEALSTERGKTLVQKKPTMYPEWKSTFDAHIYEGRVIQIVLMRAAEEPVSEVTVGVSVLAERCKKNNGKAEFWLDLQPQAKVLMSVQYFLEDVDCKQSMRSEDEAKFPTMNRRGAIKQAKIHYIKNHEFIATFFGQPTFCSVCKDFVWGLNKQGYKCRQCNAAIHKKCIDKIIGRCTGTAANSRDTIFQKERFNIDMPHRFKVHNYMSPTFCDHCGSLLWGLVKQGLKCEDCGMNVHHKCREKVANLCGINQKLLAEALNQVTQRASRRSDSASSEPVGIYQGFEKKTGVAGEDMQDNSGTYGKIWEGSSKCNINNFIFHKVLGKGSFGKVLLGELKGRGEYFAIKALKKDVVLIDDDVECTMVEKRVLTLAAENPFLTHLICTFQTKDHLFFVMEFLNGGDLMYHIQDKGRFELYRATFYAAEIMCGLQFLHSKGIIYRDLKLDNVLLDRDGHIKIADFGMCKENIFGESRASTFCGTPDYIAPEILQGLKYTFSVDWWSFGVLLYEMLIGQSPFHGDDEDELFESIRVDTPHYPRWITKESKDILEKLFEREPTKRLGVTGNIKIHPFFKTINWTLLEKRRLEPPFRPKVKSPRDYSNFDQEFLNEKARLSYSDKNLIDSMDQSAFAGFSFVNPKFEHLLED

In the case of `CCCCCCCCCCc1ccc2c(c1)N(C)[C@@H](C(C)C)C(=O)N[C@H](CO)C2`, in the test on HL-60, the EC50 was 5 nM. For the same compound, in test [1], the Ki came to 1.8 nM.

One may read the Ki as a dissociation constant, usually derived from enzyme kinetics or from competition with a known ligand.
